Test results published in PubChem BioAssay AID602482 (Sanford-Burnham Center for Chemical Genomics, 2012).
Activity calls are given as the source filed them.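 Rule for the calls: active = compounds whose mean concentration giving half-maximal cell killing is 20 µM or lower; inactive = the rest.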

System: NTR1-U2OS viability, ATPLite luminescence, 24 h
Test: U2OS cell viability loss by ATP – luminescence, ATPLite, cytotoxicity control for NTR1 agonist project, SAR follow-up (AID 602482)

Row | SMILES | IC50
1 | COc1cc2nc(C3CC3)nc(N3CCN(c4ccccc4OC)CC3)c2cc1OC | 25.4 µM (inactive)
2 | COc1cccc(OC)c1-c1nc(C(=O)N[C@@H](CC(C)C)C(=O)O)cn1-c1ccnc2cc(Cl)ccc12 | > 80 µM (inactive)
